Test results reported in paper PMC7114147 (Antiviral Research, 2013).

Assays:
S31N mutant A/M2 = S31N mutant A/M2 (Influenza A virus, UniProt P0DOF5, S31N); assay type: biochemical, influenza A/Udorn/72
V27A mutant A/M2 = V27A mutant A/M2 (Influenza A virus, UniProt P0DOF5, V27A); assay type: biochemical, influenza A/Udorn/72
[1] = tested on: A/Virginia/ATCC3/2009 (2009 pandemic A/H1N1); assay type: cell-based, influenza A virus; conditions: read-out: Antiviral activity (EC50) A/2009pan
A/X-31 (A/H3N2) = assay type: cell-based, influenza A virus; conditions: read-out: Antiviral activity (EC50) A/X-31
A/PR/8/34 4 #8 cl3 = assay: microbe, parasite or virus in culture; assay type: cell-based; conditions: Influenza A virus, PR/8, pH 5.7, read-out: Antiviral activity (EC50), 4 #8 cl3
A/PR/8/34 6c #8 cl3 = assay: microbe, parasite or virus in culture; assay type: cell-based; conditions: Influenza A virus, PR/8, pH 5.5, read-out: Antiviral activity (EC50), 6c #8 cl3
A/H1N1 (A/PR/8/34) = assay: microbe, parasite or virus in culture; assay type: cell-based, influenza A virus; conditions: read-out: Antiviral activity (EC50) A/PR/8/34

SMILES	Activity against S31N mutant A/M2 (S31N mutant A/M2)	Activity against V27A mutant A/M2 (V27A mutant A/M2)	EC50 [1] [µM]	EC50 (A/X-31 (A/H3N2)) [µM]	EC50 (A/PR/8/34 4 #8 cl3) [µM]	EC50 (A/PR/8/34 6c #8 cl3) [µM]	EC50 (A/H1N1 (A/PR/8/34)) [µM]
CC(N)C12CC3CC(CC(C3)C1)C2 (stereo not drawn) [Rimantadine, rimantadine]	inactive	inactive	≥ 158	7 ± 1.7	> 100	> 100	
CCC(CC)O[C@@H]1C=C(C(=O)O)C[C@H](N)[C@H]1NC(C)=O [Oseltamivir carboxylate]				0.11 ± 0.05			21 ± 9
CC(=O)N[C@H]1[C@H]([C@H](O)[C@H](O)CO)OC(C(=O)O)=C[C@@H]1N=C(N)N [Zanamivir]				0.16 ± 0.05			6 ± 1.3
NC(=O)c1ncn([C@@H]2O[C@H](CO)[C@@H](O)[C@H]2O)n1 [Ribavirin]			11 ± 1	8.8 ± 0.2	26 ± 4	24 ± 3	8.7 ± 0.7
C1=CC2C3C4C5C=CC4C24CNCC54C13 [Compound 3, 3-azahexacyclo[7.6.0.0^1,5.0^5,12.0^6,10.0^11,15]pentadeca-7,13-diene]	inactive	inactive					
NC12CC3CC(CC(C3)C1)C2 [Amantadine, amantadine]			137 ± 10	61 ± 12	> 250	> 250	
